{"source": "ChEMBL document CHEMBL4819085", "about": "“Dipyridyl-substituted thiosemicarbazone as a potent broad-spectrum inhibitor of metallo-β-lactamases” (Bioorg Med Chem, 2021)", "key": {"[1]": {"target": "Metallo-beta-lactamase (Escherichia coli) (UniProt Q5U7L7)", "assay": "Inhibition of Escherichia coli VIM-2 assessed as potentiation of meropenem-induced antibacterial activity by measuring fold reduction in meropenem MIC up to 8 ug/ml incubated for 24 hrs by broth microdilution method relative to meropenem alone", "conditions": "dose microg/ml <=8, time 24.0 hrs"}, "[2]": {"test_system": "Bacteria", "assay": "Reversible inhibition of bacterial NDM-1 assessed as residual activity at 50 uM incubated for 6 hrs by dialysis method relative to control"}, "[3]": {"assay": "Cytotoxicity against African green monkey Vero E6 cells assessed as cell viability at 50 uM relative to control", "format": "cell-based, Vero C1008", "conditions": "chlorocebus sabaeus, read-out: Activity"}, "[4]": {"test_system": "Escherichia coli", "assay": "Potentiation of meropenem-induced antibacterial activity against Escherichia coli 08 assessed as meropenem MIC incubated for 24 hrs by broth microdilution method", "format": "functional"}, "[5]": {"test_system": "Klebsiella pneumoniae", "assay": "In vivo antibacterial activity against Klebsiella pneumoniae producing NDM-1 infected in mouse assessed as reduction in bacterial load in spleen at 2 mg/kg, ip in presence of meropenem", "format": "functional, organism-based"}, "[6]": {"test_system": "Bacteria", "assay": "Inhibition of bacterial NDM-1 expressed in Escherichia coli BL21 (DE3) at 20 uM using meropenem as substrate incubated for 1 hr by spectrometry analysis relative to control"}, "[7]": {"test_system": "Enterococcus faecium", "assay": "Antibacterial activity against vancomycin-resistant Enterococcus faecium assessed as reduction in bacterial growth incubated for 24 hrs by broth microdilution method", "format": "functional"}, "[8]": {"test_system": "Klebsiella pneumoniae", "assay": "In vivo antibacterial activity against Klebsiella pneumoniae producing NDM-1 infected in mouse assessed as reduction in bacterial load in liver at 2 mg/kg, ip", "format": "functional, organism-based"}, "[9]": {"test_system": "Escherichia coli", "assay": "Inhibition of Escherichia coli ImiS assessed as potentiation of meropenem-induced antibacterial activity by measuring fold reduction in meropenem MIC up to 8 ug/ml incubated for 24 hrs by broth microdilution method relative to meropenem alone", "conditions": "dose microg/ml <=8, time 24.0 hrs"}, "[10]": {"test_system": "Escherichia coli", "assay": "Potentiation of meropenem-induced antibacterial activity against Escherichia coli 04 assessed as meropenem MIC incubated for 24 hrs by broth microdilution method", "format": "functional"}, "[11]": {"test_system": "Escherichia coli", "assay": "Inhibition of Escherichia coli ImiS assessed as potentiation of meropenem-induced antibacterial activity by measuring meropenem MIC incubated for 24 hrs by broth microdilution method"}, "[12]": {"test_system": "Escherichia coli", "assay": "Inhibition of Escherichia coli NDM-1 assessed as potentiation of meropenem-induced antibacterial activity by measuring fold reduction in meropenem MIC up to 8 ug/ml incubated for 24 hrs by broth microdilution method relative to meropenem alone", "conditions": "dose microg/ml <=8, time 24.0 hrs"}, "[13]": {"test_system": "Escherichia coli", "assay": "Inhibition of Escherichia coli IMP-1 assessed as potentiation of meropenem-induced antibacterial activity by measuring meropenem MIC incubated for 24 hrs by broth microdilution method"}, "[14]": {"test_system": "Klebsiella pneumoniae", "assay": "In vivo antibacterial activity against Klebsiella pneumoniae producing NDM-1 infected in mouse assessed as reduction in bacterial load in spleen at 2 mg/kg, ip", "format": "functional, organism-based"}, "[15]": {"assay": "(§1) Inhibition of bacterial NDM-1 expressed in Escherichia coli BL21 (DE3) using meropenem as substrate incubated for 1 hr by spectrometry analysis", "design": "species or system Bacteria"}, "[16]": {"test_system": "Bacteria", "assay": "as §1"}, "[17]": {"test_system": "Escherichia coli", "assay": "Inhibition of Escherichia coli NDM-1 assessed as bacterial growth rate in presence of ZnCl2 relative to control", "design": "scale not given: the % may be the effect or the level left"}, "[18]": {"test_system": "Bacteria", "assay": "Inhibition of bacterial IMP-1 at 20 uM using meropenem as substrate incubated for 1 hr by spectrometry analysis relative to control"}, "[19]": {"test_system": "Pseudomonas aeruginosa", "assay": "Antibacterial activity against Carbapenem-resistant Pseudomonas aeruginosa assessed as reduction in bacterial growth incubated for 24 hrs by broth microdilution method", "format": "functional"}, "[20]": {"test_system": "Escherichia coli", "assay": "Antibacterial activity against Escherichia coli 01 assessed as reduction in bacterial growth incubated for 24 hrs by broth microdilution method", "format": "functional"}, "[21]": {"assay": "Competitive inhibition of bacterial NDM-1 expressed in Escherichia coli BL21 (DE3) using meropenem as substrate incubated for 1 hr by Lineweaver-Burk plot analysis", "design": "species or system Bacteria"}, "[22]": {"test_system": "Escherichia coli", "assay": "Antibacterial activity against Escherichia coli producing NDM-1 assessed as zone of inhibition in presence of meropenem (reference value: 23.5 millimeter)", "format": "functional"}, "[23]": {"test_system": "Bacteria", "assay": "Inhibition of bacterial L1 at 20 uM using meropenem as substrate incubated for 1 hr by spectrometry analysis relative to control"}, "[24]": {"assay": "(§2) Inhibition of bacterial ImiS expressed in Escherichia coli BL21 (DE3) using meropenem as substrate incubated for 1 hr by spectrometry analysis", "design": "species or system Bacteria"}, "[25]": {"test_system": "Bacteria", "assay": "as §2"}, "[26]": {"test_system": "Escherichia coli", "assay": "Antibacterial activity against Escherichia coli producing L1 assessed as fractional inhibitory concentration index incubated for 24 hrs in presence of meropenem by checkerboard assay", "format": "functional, organism-based"}, "[27]": {"test_system": "Bacteria", "assay": "Reversible inhibition of bacterial NDM-1 assessed as enzyme activity at 50 uM incubated for 6 hrs by ICP-MS analysis"}, "[28]": {"test_system": "Escherichia coli", "assay": "Inhibition of Escherichia coli IMP-1 assessed as potentiation of meropenem-induced antibacterial activity by measuring fold reduction in meropenem MIC up to 8 ug/ml incubated for 24 hrs by broth microdilution method relative to meropenem alone", "conditions": "dose microg/ml <=8, time 24.0 hrs"}, "[29]": {"test_system": "Escherichia coli", "assay": "Potentiation of meropenem-induced antibacterial activity against Escherichia coli 01 assessed as meropenem MIC incubated for 24 hrs by broth microdilution method", "format": "functional"}, "[30]": {"test_system": "Escherichia coli", "assay": "Inhibition of Escherichia coli NDM-1 assessed as bacterial growth rate in presence of ZnCl2 and meropenem relative to control", "design": "scale not given: the % may be the effect or the level left"}, "[31]": {"test_system": "Escherichia coli", "assay": "Antibacterial activity against Escherichia coli 08 assessed as reduction in bacterial growth incubated for 24 hrs by broth microdilution method", "format": "functional"}, "[32]": {"test_system": "Escherichia coli", "assay": "Antibacterial activity against Escherichia coli 06 assessed as reduction in bacterial growth incubated for 24 hrs by broth microdilution method", "format": "functional"}, "[33]": {"target": "Metallo-beta-lactamase (Escherichia coli) (UniProt Q5U7L7)", "assay": "Inhibition of Escherichia coli VIM-2 assessed as potentiation of meropenem-induced antibacterial activity by measuring meropenem MIC incubated for 24 hrs by broth microdilution method"}, "[34]": {"test_system": "Escherichia coli", "assay": "Inhibition of Escherichia coli NDM-1 assessed as potentiation of meropenem-induced antibacterial activity by measuring meropenem MIC incubated for 24 hrs by broth microdilution method"}, "[35]": {"assay": "(§3) Inhibition of bacterial IMP-1 using meropenem as substrate incubated for 1 hr by spectrometry analysis", "design": "species or system Bacteria"}, "[36]": {"test_system": "Bacteria", "assay": "as §3"}, "[37]": {"target": "Metallo-beta-lactamase type 2 (Klebsiella pneumoniae, UniProt C7C422)", "sequence (C7C422 whole entry)": "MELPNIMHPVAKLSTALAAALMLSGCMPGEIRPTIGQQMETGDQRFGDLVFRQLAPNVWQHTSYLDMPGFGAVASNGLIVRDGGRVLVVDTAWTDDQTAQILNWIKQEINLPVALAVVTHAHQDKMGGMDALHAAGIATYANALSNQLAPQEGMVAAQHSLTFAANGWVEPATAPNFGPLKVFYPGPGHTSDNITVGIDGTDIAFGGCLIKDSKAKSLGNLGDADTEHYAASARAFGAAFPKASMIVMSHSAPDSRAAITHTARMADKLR", "assay": "Inhibition of NDM-1 in Klebsiella pneumoniae using meropenem as substrate incubated for 0.5 hrs"}, "[38]": {"test_system": "Klebsiella pneumoniae", "assay": "In vivo antibacterial activity against Klebsiella pneumoniae producing NDM-1 infected in mouse assessed as reduction in bacterial load in liver at 2 mg/kg, ip in presence of meropenem", "format": "functional, organism-based"}, "[39]": {"test_system": "Escherichia coli", "assay": "Inhibition of Escherichia coli NDM-1 assessed as synergistic antibacterial activity at 4 ug/ml in presence of meropenem", "conditions": "dose 4.0 µg/ml"}, "[40]": {"test_system": "Escherichia coli", "assay": "Potentiation of meropenem-induced antibacterial activity against Escherichia coli 01 assessed as fold reduction in meropenem MIC incubated for 24 hrs by broth microdilution method relative to meropenem alone", "format": "functional"}, "[41]": {"test_system": "Staphylococcus aureus", "assay": "Antibacterial activity against methicillin-resistant Staphylococcus aureus assessed as reduction in bacterial growth incubated for 24 hrs by broth microdilution method", "format": "functional"}, "[42]": {"test_system": "Escherichia coli", "assay": "Antibacterial activity against Escherichia coli 24 assessed as reduction in bacterial growth incubated for 24 hrs by broth microdilution method", "format": "functional"}, "[43]": {"test_system": "Escherichia coli", "assay": "Antibacterial activity against Escherichia coli producing ImiS assessed as fractional inhibitory concentration index incubated for 24 hrs in presence of meropenem by checkerboard assay", "format": "functional"}}, "note": "The source made the active and inactive calls. No cut-off for these calls is given here."}
{"smiles": "CN(C(=S)NN=C(c1ccccn1)c1ccccn1)C1CCCCC1", "values": [{"measurement": "fold change (FC)", "setting": "[1]", "value": 32}, {"measurement": "Activity", "setting": "[2]", "value": 70, "unit": "%"}, {"measurement": "viability at 50 µM", "setting": "[3]", "value": "> 70", "unit": "%"}, {"measurement": "MIC", "setting": "[4]", "value": 32, "unit": "µg/mL"}, {"measurement": "inhibition", "setting": "[5]", "value": "Active"}, {"measurement": "inhibition", "setting": "[6]", "value": "> 90", "unit": "%"}, {"measurement": "MIC", "setting": "[7]", "value": 16, "unit": "µg/mL"}, {"measurement": "inhibition", "setting": "[8]", "value": "inactive"}, {"measurement": "fold change (FC)", "setting": "[9]", "value": 64}, {"measurement": "MIC", "setting": "[10]", "value": 16, "unit": "µg/mL"}, {"measurement": "MIC", "setting": "[11]", "value": 4, "unit": "µg/mL"}, {"measurement": "fold change (FC)", "setting": "[12]", "value": 256}, {"measurement": "MIC", "setting": "[13]", "value": 16, "unit": "µg/mL"}, {"measurement": "inhibition", "setting": "[14]", "value": "inactive"}, {"measurement": "IC50", "setting": "[15]", "value": 0.021, "unit": "µM"}, {"measurement": "inhibition", "setting": "[16]", "value": "Dose-Dependent Effect"}, {"measurement": "Activity", "setting": "[17]", "value": 90, "unit": "%"}, {"measurement": "inhibition", "setting": "[18]", "value": "> 90", "unit": "%"}, {"measurement": "MIC", "setting": "[19]", "value": 16, "unit": "µg/mL"}, {"measurement": "MIC", "setting": "[20]", "value": 16, "unit": "µg/mL"}, {"measurement": "Ki", "setting": "[21]", "value": 0.0102, "unit": "µM"}, {"measurement": "inhibition zone (IZ)", "setting": "[22]", "value": 30.1, "unit": "mm"}, {"measurement": "inhibition", "setting": "[23]", "value": "> 90", "unit": "%"}, {"measurement": "IC50", "setting": "[24]", "value": 0.075, "unit": "µM"}, {"measurement": "inhibition", "setting": "[25]", "value": "Dose-Dependent Effect"}, {"measurement": "Activity", "setting": "[26]", "value": "inactive"}, {"measurement": "inhibition", "setting": "[27]", "value": "Active"}, {"measurement": "fold change (FC)", "setting": "[28]", "value": 8}, {"measurement": "MIC", "setting": "[29]", "value": 32, "unit": "µg/mL"}, {"measurement": "Activity", "setting": "[30]", "value": 65, "unit": "%"}, {"measurement": "MIC", "setting": "[31]", "value": 16, "unit": "µg/mL"}, {"measurement": "MIC", "setting": "[32]", "value": 16, "unit": "µg/mL"}, {"measurement": "MIC", "setting": "[33]", "value": 8, "unit": "µg/mL"}, {"measurement": "MIC", "setting": "[34]", "value": 8, "unit": "µg/mL"}, {"measurement": "IC50", "setting": "[35]", "value": 0.28, "unit": "µM"}, {"measurement": "inhibition", "setting": "[36]", "value": "Dose-Dependent Effect"}, {"measurement": "IC50", "setting": "[37]", "value": 13.6, "unit": "µM"}, {"measurement": "inhibition", "setting": "[38]", "value": "Active"}, {"measurement": "inhibition", "setting": "[39]", "value": "Active"}, {"measurement": "fold change (FC)", "setting": "[40]", "value": 2}, {"measurement": "MIC", "setting": "[41]", "value": 32, "unit": "µg/mL"}, {"measurement": "MIC", "setting": "[42]", "value": 16, "unit": "µg/mL"}, {"measurement": "FIC", "setting": "[43]", "value": 0.313}]}
